Laboratory results as given in patent US20070249633A1, “1,2,4-Triazolo[1,5a] Pyrimidines and Use Thereof for Controlling Plant-Pathogenic Fungi” (priority 2004, published 2007).

Assays:
Botrytis cinerea = experiment: Activity against gray mold on bell pepper leaves caused by Botrytis cinerea (protective spray, seedlings); assay type: in vivo; conditions: 250 ppm active compound; bell pepper seedlings Neusiedler Ideal Elite; inoculated next day; assessed after 5 days; untreated plants 90% infected
Method: The active compounds were prepared as a stock solution comprising 0.25% by weight of active compound in acetone or dimethyl sulfoxide (DMSO). 1% by weight of the emulsifier Uniperol® EL (wetting agent having emulsifying and dispersing action based on ethoxylated alkylphenols) was added to this solution, and the mixture was diluted with water to the desired concentration.
Bell pepper seedlings of the cultivar “Neusiedler Ideal Elite” were, after 2-3 leaves were well developed, sprayed to runoff point with an aqueous suspension having the concentration of active compound stated below. The next day, the treated plants were inoculated with a spore suspension of Botrytis cinerea which contained 1.7×10^6 spores/ml in a 2% strength aqueous biomalt solution. The test plants were then placed in a climatized chamber at 22-24° C. and high atmospheric humidity. After 5 days, the extent of the fungal infection on the leaves could be determined visually in %.

Alternaria solani = experiment: Activity against early blight of tomato caused by Alternaria solani (protective spray, potted plants); assay type: in vivo; conditions: 250 ppm active compound; tomato cultivar St. Pierre beef tomato; infected next day; assessed after 5 days; untreated plants 80% infected
Method: The active compounds were prepared as a stock solution comprising 0.25% by weight of active compound in acetone or dimethyl sulfoxide (DMSO). 1% by weight of the emulsifier Uniperol® EL (wetting agent having emulsifying and dispersing action based on ethoxylated alkylphenols) was added to this solution, and the mixture was diluted with water to the desired concentration. Leaves of potted plants of the cultivar “St. Pierre beef tomato” were sprayed to run off point with an aqueous suspension having the concentration of active compounds stated below. The next day, the leaves were infected with an aqueous zoospore suspension of Alternaria solani in 2% biomalt solution having a density of 0.17×10^6 spores/ml. The plants were then placed in a water-vapor-saturated chamber at temperatures of between 20 and 22° C. After 5 days, the infection on the leaves of the untreated, but infected control plants had developed to such an extent that the infection could be determined visually in %.

SMILES: CCC(C)Cc1c(-c2ccc([N+](=O)[O-])cc2Cl)c(C)nc2ncnn12 (centres unmarked) [example 1, 5-methyl-6-(2chloro-4-nitrophenyl)-7-(2-methylbutyl)-1,2,4-triazolo[1,5-a]pyrimidine]
- extent of the fungal infection on the leaves determined visually in % (Botrytis cinerea): no infection
- infection on the leaves determined visually in % (Alternaria solani): less than 5%
